Earlier results on one molecule are cited in US20220249374A1, “RADIOTHERAPEUTIC MICROSPHERES” (priority 2019, published 2022).

For this data set, the system named is HCC. The conditions noted are these: patients with HCC too advanced for resection or localized ablation.

Turning to `CNC(=O)c1cc(Oc2ccc(NC(=O)Nc3ccc(Cl)c(C(F)(F)F)c3)cc2)ccn1` [Nexavar, sorafenib], the prolongation of survival entry is reported as “three”.
